Laboratory results published in patent publication US20250325676A1, “CAMPTOTHECIN PRODRUG AND PHARMACEUTICAL COMPOSITION THEREOF” (TIANJIN HEMAY ONCOLOGY PHARMACEUTICAL CO., LTD, priority 2022, published 2025).

Columns and labels:
NCI-H460 = experiment: In vitro inhibition of human tumor cells, NCI-H460, MTT method; format: cell-based
Description: (§1) The cells were allowed to adhere overnight.
(§2) Adherent cells: Culture medium was aspirated and 100 μl/wells of basal culture (generally refers to medium without fetal bovine serum (FBS) and other additives) containing 0.5 mg/ml MTT were added. The cells were cultured for 3 hours. MTT-containing basal medium was aspirated and 100 μl/wells of DMSO were added to dissolve formazan.
(§3) Unstably adherent cells: Unstably adherent cells were directly added to the MTT solution to achieve the concentration of 0.5 mg/ml and cultured for 3 hours. The ternary solution in an equal volume to the system was added to the system to dissolve the formazan.
(§4) The DMSO concentration was 0.1%.

LoVo = experiment: In vitro inhibition of human tumor cells, LoVo, SRB method; format: cell-based
Source text: as §1
(§5) Trichloroacetic acid was removed. […] Excess SRB was removed.
as §4

HCT116 = experiment: In vitro inhibition of human tumor cells, HCT116, MTT method; format: cell-based
Description: as §1, §2, §3, §4

NCI-N87 = experiment: In vitro inhibition of human tumor cells, NCI-N87, MTT method; format: cell-based
MDA-MB-468 = experiment: In vitro inhibition of human tumor cells, MDA-MB-468, SRB method
Description: 1.1.2 Cell culture method: Cells were cultured in complete medium, 37° C., 5% CO2, saturated humidity to log growth phase (adherent cells generally attended to complete fusion), and cells were collected for subsequent experiments (adherent cells were first digested with trypsin/ethylene diamine tetraacetic acid (EDTA) to remove adherent).
1.1.3 96-well cell culture plates (hereinafter referred to as 96-well plates) were inoculated with a certain number of cells (see Table 1 for details). The cells were allowed to adhere overnight. […] Finally, the total amount of cell protein in the assay wells was determined by the SRB method, or the cell viability was determined by the MTT method:
The culture medium was aspirated from the wells and the cells were fixed for 1 hour or more by adding 10% trichloroacetic acid. Trichloroacetic acid was removed. The resultant was washed with H2O and stained with 0.4% SRB for 15 to 30 minutes. Excess SRB was removed. The resultant was washed with 1% acetic acid. The protein-bound SRB was dissolved by adding 10 mM of 100 μl Tris (trishydroxymethylaminomethane). Tests were carried out at the wavelength of 570 nm.
1.1.4 dilution and addition of β-glucuronidase: 1 to 2 mg of β-glucuronidase was weighed and dissolved in PBS to give a 2 mg/ml of stock solution. […] 80 μl of enzyme working solution was added to the enzyme-containing assay wells. The amount of β-glucuronidase was 1 μg/wells. No enzyme-containing assay wells were added to the 80 μl of complete medium.
The assay wells were charged with 20 μl of 10× compound working solution. The final volume was 200 μl per well. The DMSO concentration was 0.1%.
1.1.6 Compound inhibition activity calculation: The test included a compound test group, a compound-free positive solvent control group (PC) and a compound-free negative solvent control group (NC). […] The average inhibition rate and the standard deviation (SD) were obtained from the repeated test wells. The average inhibition rate was plotted on the basis of the compound concentration as an abscissa and distributed in the form of logarithms. The curve was fitted to the Logistic 4 parameter equation. […] The test was generally repeated to obtain 3 valid results.

BxPC-3 = experiment: In vitro inhibition of human tumor cells, BxPC-3, MTT method; format: cell-based
Description: as §1, §2, §3, §4

SW620 = experiment: In vitro inhibition of human tumor cells, SW620, SRB method; format: cell-based
Source text: as §1, §5, §4

[1] = system: human small cell lung cancer NCI-H446; settings: 20 mg/kg i.v. qw × 2; NCI-H446 model
Description: An allogeneic transplantation model of human small cell lung cancer NCI-H446 was established in nude mice subcutaneously using a tumor block inoculation method. When the tumor volume of the allogeneic transplantation was about 100 to 300 mm^3 and remained stable, the experimental animals were randomly divided into groups according to the size of the tumor volume (day 0, i.e., d0) using a remainder method. The tumor volume was measured 2 to 3 times a week. At the end of the dosage period, the experimental animals were sacrificed. The subcutaneous tumors were peeled and weighed. The anti-tumor activity of the drug against the model was evaluated based on tumor volume and tumor weight-related data.
The calculation formula of the tumor volume was: Volume=0.5×long diameter×short diameter×short diameter.
V0 was the resulting tumor volume measured at the time of dosing in groups (i.e., d0) and Vt was the tumor volume at each measurement.
T was the subject and C was the model control.
TRTV was the average RTV of the subject, and CRTV was the average RTV of the model control group.
Wn: average body weight of each group of experimental animals on day n, and W0: average body weight of each group of experimental animals on day 0.

[2] = system: human colon cancer HCT116; settings: 30 mg/kg i.v. qw × 2; HCT116 large tumor after irinotecan
Source text: When the tumor volume was more than 600 mm^3 and stable growth was maintained, the experimental animals were randomly divided by the remainder method and administered according to the size of the tumor volume. […] The subcutaneous tumors were stripped and weighed.
T was the subject and C is the model control.
Tumor volume growth was observed on a regular basis after completion of dosing.

[3] = No βGU (direct effects of compound on cells)

(2S,3S,4S,5R,6S)-6-(3-((1-(6-((4′-((E)-(8-amino-1-hydroxy-5,7-disulfonicnaphthalen-2-yl)diazenyl)-[1,1′-biphenyl]-4-yl)amino)-6-oxohexyl)-1H-1,2,3-triazol-4-yl)methoxy)-4-((((S)-4-ethyl-4-hydroxy-3,14-dioxo-3,4,12,14-tetrahydro-1H-pyrano[3′,4′:6,7]indolazino[1,2-b]quinolin-9-yl)oxy)methyl)phenoxy)-3,4,5-trihydroxytetrahydro-2H-pyran-2-carboxylate trisodium [Example 29]
IC50 (NCI-H460; Adding βGU): 30 nM | inhibition rate at 2 μM (NCI-H460; No βGU, 2 μM): 2 μM about 43.9% | IC50 (LoVo; Adding βGU): 55 nM | IC50 (LoVo; No βGU): 1200 nM | IC50 (HCT116; Adding βGU (β-glucuronidase)): 17 nM | IC50 (HCT116; [3]): 1350 nM | IC50 (NCI-N87; Adding βGU): 64 nM | inhibition rate at 2 μM (NCI-N87; No βGU): 2 μM about 31.0% | IC50 (MDA-MB-468; Adding βGU): 14 nM | IC50 (MDA-MB-468; No βGU): 788 nM | IC50 (BxPC-3; Adding βGU): 38 nM | IC50 (BxPC-3; No βGU): 916 nM | IC50 (SW620; Adding βGU): 9.6 nM | IC50 (SW620; No βGU): 350 nM

(2S,3S,4S,5R,6S)-6-(3-((1-(6-((4′-((E)-(8-amino-1-hydroxy-5,7-disulfonicnaphthalen-2-yl)diazenyl)-3,3′-dimethoxy-[1,1′-biphenyl]-4-yl)amino)-6-oxohexyl)-1H-1,2,3-triazol-4-yl)methoxy)-4-(((S)-4-ethyl-4-hydroxy-3,14-dioxy-3,4,12,14-tetrahydro-1H-pyrano[3′,4′:6,7]indolazino[1,2-b]quinolin-9-yl)oxy)methyl)phenoxy)-3,4,5-trihydroxytetrahydro-2H-pyran-2-carboxylate trisodium [Example 31]
IC50 (NCI-H460; Adding βGU): 19 nM | IC50 (NCI-H460; No βGU): 540 nM | IC50 (LoVo; Adding βGU): 32 nM | IC50 (LoVo; No βGU): 699 nM | IC50 (HCT116; Adding βGU (β-glucuronidase)): 9.3 nM | IC50 (HCT116; [3]): 339 nM | IC50 (NCI-N87; Adding βGU): 62 nM | IC50 (NCI-N87; No βGU): 1770 nM | IC50 (MDA-MB-468; Adding βGU): 11 nM | IC50 (MDA-MB-468; No βGU): 329 nM | IC50 (BxPC-3; Adding βGU): 21 nM | IC50 (BxPC-3; No βGU): 518 nM | IC50 (SW620; Adding βGU): 10 nM | IC50 (SW620; No βGU): 220 nM

(2S,3S,4S,5R,6S)-6-(3-((1-(8-((4′-((E)-(8-amino-1-hydroxy-5,7-disulfonicnaphthalen-2-yl)diazenyl)-3,3′-dimethyl-[1,1′-biphenyl]-4-yl)amino)-8-oxooctyl)-1H-1,2,3-triazol-4-yl)methoxy)-4-((((S)-4,11-diethyl-4-hydroxy-3,14-dioxy-3,4,12,14-tetrahydro-1H-pyrano[3′,4′:6,7]indolazino[1,2-b]quinolin-9-yl)oxy)methyl)-2-methylphenoxy)-3,4,5-trihydroxytetrahydro-2H-pyran-2-carboxylate trisodium [Example 48]
IC50 (NCI-H460; Adding βGU): 6.8 nM | IC50 (NCI-H460; No βGU): 419 nM | IC50 (LoVo; Adding βGU): 28 nM | IC50 (LoVo; No βGU): 372 nM | IC50 (HCT116; Adding βGU (β-glucuronidase)): 5.9 nM | IC50 (HCT116; [3]): 119 nM | IC50 (NCI-N87; Adding βGU): 52 nM | IC50 (NCI-N87; No βGU): 1200 nM | IC50 (MDA-MB-468; Adding βGU): 7.3 nM | IC50 (MDA-MB-468; No βGU): 94 nM | IC50 (BxPC-3; Adding βGU): 28 nM | IC50 (BxPC-3; No βGU): 432 nM | IC50 (SW620; Adding βGU): 10 nM | IC50 (SW620; No βGU): 230 nM

(2S,3S,4S,5R,6S)-6-(3-((1-(6-((4′-((E)-(8-amino-1-hydroxy-5,7-disulfonicnaphthalen-2-yl)diazenyl)-3,3′-dimethyl-[1,1′-biphenyl]-4-yl)amino)-6-oxohexyl)-1H-1,2,3-triazol-4-yl)methoxy)-4-((((S)-4,11-diethyl-4-hydroxy-3,14-dioxy-3,4,12,14-tetrahydro-1H-pyrano[3′,4′:6,7]indolazino[1,2-b]quinolin-9-yl)oxy)methyl)2-methylphenoxy)-3,4,5-trihydroxytetrahydro-2H-pyran-2-carboxylate trisodium [Example 14]
Relative volume RTV (X ± S.D.) [1]: 0.69 ± 0.45 | T/C (%) [1]: 10.2% | Tumor inhibition rate (%) [1]: 91.3% | Tumor weight (g, X ± S.D.) [1]: 0.085 ± 0.075 g | IC50 (NCI-H460; Adding βGU): 8.7 nM | IC50 (NCI-H460; No βGU): 533 nM | IC50 (LoVo; Adding βGU): 10 nM | IC50 (LoVo; No βGU): 204 nM | IC50 (HCT116; Adding βGU (β-glucuronidase)): 3.3 nM | IC50 (HCT116; [3]): 175 nM | IC50 (NCI-N87; Adding βGU): 26 nM | IC50 (NCI-N87; No βGU): 1480 nM | IC50 (MDA-MB-468; Adding βGU): 4.4 nM | IC50 (MDA-MB-468; No βGU): 106 nM | IC50 (BxPC-3; Adding βGU): 16 nM | IC50 (BxPC-3; No βGU): 406 nM | IC50 (SW620; Adding βGU): 6.3 nM | IC50 (SW620; No βGU): 151 nM

(2S,3S,4S,5R,6S)-6-(3-((1-(6-((4′-((E)-(8-amino-1-hydroxy-5,7-disulfonicnaphthalen-2-yl)diazenyl)-[1,1′-biphenyl]-4-yl)amino)-6-oxohexyl)-1H-1,2,3-triazol-4-yl)methoxy)-4-((((S)-4,11-diethyl-4-hydroxy-3,14-dioxo-3,4,12,14-tetrahydro-1H-pyrano[3′,4′:6,7]indolazino[1,7]quinolin-9-yl)oxy)methyl)-2-methylphenoxy)-3,4,5-trihydroxytetrahydro-2H-pyran-2-carboxylate trisodium [Example 18]
IC50 (NCI-H460; Adding βGU): 7.6 nM | IC50 (NCI-H460; No βGU): 533 nM | IC50 (LoVo; Adding βGU): 19 nM | IC50 (LoVo; No βGU): 812 nM | IC50 (HCT116; Adding βGU (β-glucuronidase)): 6.5 nM | IC50 (HCT116; [3]): 186 nM | IC50 (NCI-N87; Adding βGU): 29 nM | inhibition rate at 2 μM (NCI-N87; No βGU): 2 μM about 49.3% | IC50 (MDA-MB-468; Adding βGU): 5.5 nM | IC50 (MDA-MB-468; No βGU): 110 nM | IC50 (BxPC-3; Adding βGU): 17 nM | IC50 (BxPC-3; No βGU): 1620 nM | IC50 (SW620; Adding βGU): 6.8 nM | IC50 (SW620; No βGU): 204 nM

(2S,3S,4S,5R,6S)-6-(3-((1-(2-(2-((4′-(E)-(8-amino-1-hydroxy-5,7-disulfonicnaphthalen-2-yl)diazenyl)-3,3′-dimethyl-[1,1′-biphenyl]-4-yl)amino)-3-oxopropoxy)ethyl)-1H-1,2,3-triazol-4-yl)methoxy)-4-((((S)-4,11-diethyl-4-hydroxy-3,14-dioxy-3,4,12,14-tetrahydro-1H-pyrano[3′,4′:6,7]indolazino[1,2-b]quinolin-9-yl)oxy)methyl)phenoxy)-3,4,5-trihydroxytetrahydro-2H-pyran-2-carboxylate trisodium [Example 101]
Relative volume RTV (X ± S.D.) [2]: 0.90 ± 0.20 | T/C (%) [2]: 24.2% | Tumor inhibition rate (%) [2]: 81.6% | Tumor weight (g, X ± S.D.) [2]: 0.501 ± 0.081 g | IC50 (NCI-N87; Adding βGU): 51 nM | IC50 (NCI-N87; No βGU): 1240 nM | IC50 (MDA-MB-468; Adding βGU): 11 nM | IC50 (MDA-MB-468; No βGU): 372 nM

(2S,3S,4S,5R,6S)-6-(3-((1-(3-(2-((4′-(E)-(8-amino-1-hydroxy-5,7-disulfonicnaphthalen-2-yl)diazenyl)-3,3′-dimethyl-[1,1′-biphenyl]-4-yl)amino)-2-oxoethoxy)propyl)-1H-1,2,3-triazol-4-yl)methoxy)-4-((((S)-4,11-diethyl-4-hydroxy-3,14-dioxy-3,4,12,14-tetrahydro-1H-pyrano[3′,4′:6,7]indolazino[1,7]quinolin-9-yl)oxy)methyl)phenoxy)-3,4, 5-trihydroxytetrahydro-2H-pyran-2-carboxylate trisodium [Example 96]
Relative volume RTV (X ± S.D.) [2]: 0.78 ± 0.03 | T/C (%) [2]: 21.0% | Tumor inhibition rate (%) [2]: 84.4% | Tumor weight (g, X ± S.D.) [2]: 0.425 ± 0.091 g | IC50 (NCI-N87; Adding βGU): 30 nM | IC50 (NCI-N87; No βGU): 964 nM | IC50 (MDA-MB-468; Adding βGU): 7.5 nM | IC50 (MDA-MB-468; No βGU): 213 nM
